Reference: patent US20240139172A1, “PIPERIDINE UREA DERIVATIVES FOR CANCER THERAPY” (NeuroPn Therapeutics, Inc., priority 2022, published 2024)

Test system: adult zebrafish
Assay: Paclitaxel-induced peripheral neuropathy in adult zebrafish (number of stimuli until twitch)
Type: in vivo
Settings: 3 μL of 10-μM paclitaxel solution for four consecutive days, FIG. 9
Protocol: Method to evaluate potential of compounds of Formula 1 to reduce or block chemotherapy-induced peripheral neuropathy—Animal (zebrafish) model described below and in literature (Lisse T S et al PNAS 113 (15) E2189-E2198) was used to evaluate potential of compounds of Formula 1 to reduce or block neuronal damage induced by chemotherapeutics.
To induce peripheral neuropathy in adult zebrafish, 3 μL of a 10-μM paclitaxel solution in 0.15% DMSO was administered with a 33 gauge Hamilton Syringe for a zebrafish with average ˜200 mg body weight. Fish were treated with vehicle alone or paclitaxel for four consecutive days (Days 2-5) or paclitaxel with Compound A (10- or 30 ng). Compound A was dosed orally by mixing with the fish feed pellets. Fishes were conditioned to consume three pellets a day. […] To prepare test compound infused pellet, a known quantity of the compound was mixed with the known quantity of the feed powder and were extruded in to 4 mg pellet containing the desired administration dose per pellet. Concentration of test compound dosed per fish were controlled by the number of pellets and the quantity of compound per pellet. […]
To determine the peripheral nerve damage, fish were wrapped in plastic foil until calm, and the distal tail fin was stimulated with an insect pin until twitching of the fish was observed. Number of stimuli until twitch was recorded.

## CC(=O)O[C@H]1C(=O)[C@@]2(C)[C@H]([C@H](OC(=O)c3ccccc3)[C@]3(O)C[C@H](OC(=O)[C@H](O)[C@@H](NC(=O)c4ccccc4)c4ccccc4)C(C)=C1C3(C)C)[C@]1(OC(C)=O)CO[C@@H]1C[C@@H]2O [paclitaxel]
  peripheral nerve damage (increase in number of stimuli needed) compared to vehicle alone: significant nerve damage
